Here are results for 25 compounds from patent US9884839B2, “Inhibitors of 17Beta-hydroxysteroid dehydrogenases type 1 and type 2” (ElexoPharm GmbH, priority 2014, dated 2018).

Common to all, as to format: biochemical
For one assay, the target named is T1, human 17β-HSD1 (Homo sapiens, UniProt P14061).
T1 construct: For the partial purification of 17β-HSD1, the cytosolic fraction was precipitated with ammonium sulfate; from tissue; host or cells: human placenta, cytosolic fraction, ammonium sulfate precipitate
T1 sequence (P14061 1-328): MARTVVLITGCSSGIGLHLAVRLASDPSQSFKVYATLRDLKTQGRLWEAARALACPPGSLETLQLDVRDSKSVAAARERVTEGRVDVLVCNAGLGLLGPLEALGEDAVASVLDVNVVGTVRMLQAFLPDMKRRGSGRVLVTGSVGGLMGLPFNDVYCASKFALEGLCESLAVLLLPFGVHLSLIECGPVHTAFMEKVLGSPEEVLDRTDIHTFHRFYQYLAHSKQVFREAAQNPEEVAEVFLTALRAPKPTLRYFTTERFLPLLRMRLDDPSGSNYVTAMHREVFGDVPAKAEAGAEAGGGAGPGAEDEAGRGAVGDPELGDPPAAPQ
Nature of the assay: Inhibition of human 17β-HSD1 (conversion of [3H]-E1 to E2, HPLC radioflow detection). The settings on record: for inhibition at 1 µM: read-out: % inhibition h17β-HSD1 @ 1 μM; for IC50: read-out: IC50 [nM] h17β-HSD1; for inhibition at 0.01 µM: read-out: % inhibition h17β-HSD1 @ 10 nM.

Another assay has as its target T2, human 17β-HSD2 (Homo sapiens, UniProt P37059).
T2 construct: 17β-HSD2 was obtained from the microsomal fraction; from tissue; host or cells: human placenta, microsomal fraction
T2 sequence (P37059 1-387): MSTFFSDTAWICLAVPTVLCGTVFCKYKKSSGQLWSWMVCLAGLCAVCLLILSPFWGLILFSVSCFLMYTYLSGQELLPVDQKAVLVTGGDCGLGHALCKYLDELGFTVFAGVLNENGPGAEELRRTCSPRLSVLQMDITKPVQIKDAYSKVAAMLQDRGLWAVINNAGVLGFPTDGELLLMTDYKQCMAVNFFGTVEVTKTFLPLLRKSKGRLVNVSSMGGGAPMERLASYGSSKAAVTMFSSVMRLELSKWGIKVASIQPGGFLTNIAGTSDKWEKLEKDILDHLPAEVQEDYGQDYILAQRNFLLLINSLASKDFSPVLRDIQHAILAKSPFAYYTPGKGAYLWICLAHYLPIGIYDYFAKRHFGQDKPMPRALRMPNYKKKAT
In words: Inhibition of human 17β-HSD2 (conversion of [3H]-E2 to E1). The conditions noted are these: for inhibition at 0.01 µM: read-out: % inhibition h17β-HSD2 @ 10 nM.

The next assay concerns the target T3, mouse 17β-HSD2 (Mus musculus, UniProt P51658).
T3 construct: The pellet fractions containing the microsomal 17β-HSD2 were used for the determination of E1 formation; from tissue; host or cells: mouse liver, microsomal fraction
T3 sequence (P51658 1-381): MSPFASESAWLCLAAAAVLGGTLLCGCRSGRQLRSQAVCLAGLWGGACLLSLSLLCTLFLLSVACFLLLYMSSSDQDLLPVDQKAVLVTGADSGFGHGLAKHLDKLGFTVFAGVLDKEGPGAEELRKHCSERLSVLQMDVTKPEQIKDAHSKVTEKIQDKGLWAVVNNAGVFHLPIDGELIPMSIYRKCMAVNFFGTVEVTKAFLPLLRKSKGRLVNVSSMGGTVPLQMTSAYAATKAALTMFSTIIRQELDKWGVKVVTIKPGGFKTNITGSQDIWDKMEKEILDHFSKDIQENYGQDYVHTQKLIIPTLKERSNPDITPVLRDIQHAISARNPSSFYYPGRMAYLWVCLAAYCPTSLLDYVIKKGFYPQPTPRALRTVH
In words: Inhibition of mouse 17β-HSD2 (liver microsomal fraction). The conditions noted are these: read-out: % inhibition m17β-HSD2 @ 50 nM. On the technique in general: Liver microsomes are vesicles of endoplasmic reticulum, rich in cytochrome P450 enzymes.

Structures are written as SMILES. Like-named read-outs stand apart in the source and are kept apart here.

Description for human 17β-HSD2: Fresh human placenta was homogenized, and cytosolic fraction and microsomes were separated by differential centrifugation at 1,000 g, 10,000 g and 150,000 g.
(§1) The conversion rate was calculated after analysis of the resulting chromatograms according to the following equation: % conversion=[% E1/(% E1+% E2)]×100
Description for mouse 17β-HSD2: Microsomal 17β-HSD2 fractions were obtained from mouse or rat liver. Fresh liver tissues were processed as described for the human placental 17β-HSD2 preparation. The pellet fractions containing the microsomal 17β-HSD2 were used for the determination of E1 formation.
as §1

For the compound `O=C(c1cccc(O)c1)c1ccc(-c2ccc(F)cc2F)s1` [A, reference compound], the inhibition at 1 µM at human 17β-HSD1 came out at 32%.

Take `O=C(c1ccc(-c2ccncc2)s1)c1c(F)ccc(O)c1F` [Compound 8, (2,6-Difluoro-3-hydroxy-phenyl)-(5-pyridin-4-yl-thiophen-2-yl)-methanone]: the inhibition at 1 µM at human 17β-HSD1 was found to be 27%; on human 17β-HSD2 (read-out: % inhibition h17β-HSD2 @ 1 μM), 49%.

For the compound `CC(C)Oc1ccc(-c2ccc(C(=O)c3c(F)ccc(O)c3F)s2)cc1C#N` [Compound 18, 5-[5-(2,6-Difluoro-3-hydroxy-benzoyl)-thiophen-2-yl]-2-isopropoxy-benzonitrile], the results for the IC50 on human 17β-HSD1 and on human 17β-HSD2 (read-out: IC50 [nM] h17β-HSD2) were 8 nM and 19 nM, respectively.

As to `COc1c(C)cc(-c2ccc(C(=O)c3c(F)ccc(O)c3F)s2)cc1Cl` [Compound 26, [5-(3-Chloro-4-methoxy-5-methyl-phenyl)-thiophen-2-yl]-(2,6-difluoro-3-hydroxy-phenyl)-methanone], the IC50 on human 17β-HSD1 (human placental cytosolic enzyme, E1 500 nM, NADH, Tables 1, 4-11) amounted to 0.4 nM.

On to `Cc1cc(-c2ccc(C(=O)c3c(F)ccc(O)c3F)s2)cc(Cl)c1O` [Compound 27, [5-(3-Chloro-4-hydroxy-5-methyl-phenyl)-thiophen-2-yl]-(2,6-difluoro-3-hydroxy-phenyl)-methanone], for which the IC50 at human 17β-HSD1 stood at 0.2 nM.

In the case of `COc1ccc(-c2ccc(C(=O)c3cc(F)c(F)c(O)c3F)s2)cc1` [Compound 51, (5-(4-Methoxyphenyl)thiophen-2-yl)(2,4,5-trifluoro-3-hydroxyphenyl)methanone], the figures for the inhibition at 0.01 µM at human 17β-HSD1 and on human 17β-HSD2 were 47% and 87%, respectively.

As for `COc1cccc(-c2ccc(C(=O)c3cc(F)c(F)c(O)c3F)s2)c1` [Compound 52, (5-(3-Methoxyphenyl)thiophen-2-yl)(2,4,5-trifluoro-3-hydroxyphenyl)methanone], the results for the inhibition at 0.01 µM at human 17β-HSD1 and on human 17β-HSD2 were 75% and 47%, respectively. Besides, the inhibition at 0.05 µM on mouse 17β-HSD2 is 15%.

Turning to `COc1ccccc1-c1ccc(C(=O)c2cc(F)c(F)c(O)c2F)s1` [Compound 53, (5-(2-Methoxyphenyl)thiophen-2-yl)(2,4,5-trifluoro-3-hydroxyphenyl)methanone], the inhibition at 0.01 µM was 81% at human 17β-HSD1 and 96% on human 17β-HSD2. Moreover, the inhibition at 0.05 µM on mouse 17β-HSD2 came out at 34%.

`CC(=O)Nc1cccc(-c2ccc(C(=O)c3cc(F)c(F)c(O)c3F)s2)c1` [Compound 54, N-(3-(5-(2,4,5-Trifluoro-3-hydroxybenzoyl)thiophen-2-yl)phenyl)acetamide]: the values for the inhibition at 0.01 µM at human 17β-HSD1 and at human 17β-HSD2 were 31% and 89%, respectively. Further, the inhibition at 0.05 µM at mouse 17β-HSD2 worked out at 30%.

Regarding `Nc1ccccc1-c1ccc(C(=O)c2cc(F)c(F)c(O)c2F)s1` [Compound 55, (5-(2-Aminophenyl)thiophen-2-yl)(2,4,5-trifluoro-3-hydroxyphenyl)methanone], the inhibition at 0.01 µM came out at 12% on human 17β-HSD1 and 68% on human 17β-HSD2. The inhibition at 0.05 µM on mouse 17β-HSD2 amounted to 23%.

For the compound `O=C(c1ccc(-c2ccccc2)s1)c1cc(F)c(F)c(O)c1F` [Compound 56, (5-Phenylthiophen-2-yl)(2,4,5-trifluoro-3-hydroxyphenyl)methanone], the inhibition at 0.01 µM at human 17β-HSD1 stood at 71%; at human 17β-HSD2, 93%.

As to `Cc1ccc(-c2ccc(C(=O)c3cc(F)c(F)c(O)c3F)s2)cc1N` [Compound 57, (5-(3-Amino-4-methylphenyl)thiophen-2-yl)(2,4,5-trifluoro-3-hydroxyphenyl)methanone], the figures for the inhibition at 0.01 µM at human 17β-HSD1 and on human 17β-HSD2 were 14% and 60%, respectively.

With `Nc1cc(-c2ccc(C(=O)c3cc(F)c(F)c(O)c3F)s2)ccc1O` [Compound 59, (5-(3-Amino-4-hydroxyphenyl)thiophen-2-yl)(2,4,5-trifluoro-3-hydroxyphenyl)methanone], the inhibition at 0.01 µM at human 17β-HSD1 is 48%; on human 17β-HSD2, 68%. In addition, the inhibition at 0.05 µM on mouse 17β-HSD2 came to 27%.

As to `COc1ccc(-c2ccc(C(=O)c3cc(F)c(F)c(O)c3F)s2)cc1N` [Compound 60, (5-(3-Amino-4-methoxyphenyl)thiophen-2-yl)(2,4,5-trifluoro-3-hydroxyphenyl)methanone], the inhibition at 0.01 µM was 13% on human 17β-HSD1 and 51% on human 17β-HSD2. The inhibition at 0.05 µM on mouse 17β-HSD2 is 23%.

On to `O=C(c1ccc(-c2ccc3[nH]ccc3c2)s1)c1cc(F)c(F)c(O)c1F` [Compound 61, (5-(1H-Indol-5-yl)thiophen-2-yl)(2,4,5-trifluoro-3-hydroxyphenyl)methanone], for which the values for the inhibition at 0.01 µM at human 17β-HSD1 and on human 17β-HSD2 were 48% and 68%, respectively. For the same compound, the inhibition at 0.05 µM at mouse 17β-HSD2 was 60%.

Take `CC(=O)Nc1ccc(-c2ccc(C(=O)c3cc(F)c(F)c(O)c3F)s2)cc1` [Compound 64, N-(4-(5-(2,4,5-trifluoro-3-hydroxybenzoyl)thiophen-2-yl)phenyl)acetamide]: the values for the inhibition at 0.01 µM at human 17β-HSD1 and at human 17β-HSD2 were 0% and 62%, respectively. Further, the inhibition at 0.05 µM at mouse 17β-HSD2 came out at 28%.

`O=C(c1ccc(-c2cccnc2)s1)c1cc(F)c(F)c(O)c1F` [Compound 65, (5-(Pyridin-3-yl)thiophen-2-yl)(2,4,5-trifluoro-3-hydroxyphenyl)methanone]: the inhibition at 0.01 µM at human 17β-HSD1 is 15%; on human 17β-HSD2, 62%.

Consider `O=C(c1ccc(-c2ccc3cccnc3c2)s1)c1cc(F)c(F)c(O)c1F` [Compound 66, (5-(Quinolin-7-yl)thiophen-2-yl)(2,4,5-trifluoro-3-hydroxyphenyl)methanone], for which the inhibition at 0.01 µM on human 17β-HSD1 turned out to be 22%; at human 17β-HSD2 it was 83%.

On to `O=C(c1ccc(-c2ccc3[nH]cnc3c2)s1)c1cc(F)c(F)c(O)c1F` [Compound 67, (5-(1H-Benzo[d]imidazol-5-yl)thiophen-2-yl)(2,4,5-trifluoro-3-hydroxyphenyl)methanone], for which the inhibition at 0.01 µM on human 17β-HSD1 came out at 30%; at human 17β-HSD2, 86%.

Consider `O=C(c1ccc(-c2cccc(O)c2)s1)c1cc(F)c(F)c(O)c1F` [Compound 69, (5-(3-Hydroxyphenyl)thiophen-2-yl)(2,4,5-trifluoro-3-hydroxyphenyl)methanone], for which the inhibition at 0.01 µM was determined as 72% at human 17β-HSD1 and 95% at human 17β-HSD2. Further, the inhibition at 0.05 µM at mouse 17β-HSD2 stood at 32%.

Turning to `O=C(c1ccc(-c2ccccc2O)s1)c1cc(F)c(F)c(O)c1F` [Compound 70, (5-(2-Hydroxyphenyl)thiophen-2-yl)(2,4,5-trifluoro-3-hydroxyphenyl)methanone], the inhibition at 0.01 µM at human 17β-HSD1 came to 19%; on human 17β-HSD2, 100%.

Turning to `Cc1ccc(C(=O)c2cc(F)c(F)c(O)c2F)s1` [Compound 73, (5-Methylthiophen-2-yl)(2,4,5-trifluoro-3-hydroxyphenyl)methanone], the inhibition at 0.1 µM at human 17β-HSD1 (read-out: % inhibition h17β-HSD1 @ 100 nM, compound 100 nM) came to 9.1%.

As for `NS(=O)(=O)Oc1ccc(-c2ccc(C(=O)c3cc(F)c(F)c(O)c3F)s2)cc1` [Compound 74, 4-(5-(2,4,5-Trifluoro-3-hydroxybenzoyl)thiophen-2-yl)phenyl sulfamate], the inhibition at 0.01 µM was determined as 20% on human 17β-HSD1 and 72% at human 17β-HSD2.

`COc1c(Cl)cc(-c2ccc(C(=O)c3c(Cl)ccc(O)c3F)s2)cc1Cl` [Compound 77, (6-Chloro-2-fluoro-3-hydroxyphenyl)(5-(3,5-dichloro-4-methoxyphenyl)thiophen-2-yl)methanone]: the figures for the inhibition at 0.01 µM at human 17β-HSD1 and on human 17β-HSD2 were 100% and 45%, respectively.

Consider `Nc1cccc(-c2ccc(C(=O)c3cccc(O)c3)s2)c1` [F, reference compound], for which the inhibition at 1 µM on human 17β-HSD1 came out at 77%; at human 17β-HSD2 (read-out: IC50 [nM] or % inhibition h17β-HSD1 (second column so headed, Table 6): % @ 1 μM), 68%.

The inhibition is how much of the control response was suppressed. Usually IC50 stands for the concentration needed to halve the response being measured.
